{
  "source": "patent US20090093538A1",
  "about": "“Method for treating cancer” (priority 2007, published 2009)",
  "key": {"[1]": {"test_system": "Hsp70", "test": "Hsp70 induction by Compound 1 in the presence of Tiron", "format": "cell-based", "settings": "Tiron (FIG. 45)", "excerpt": "(§1) Tiron is a direct scavenger of ROS and is a potent inhibitor of oxidative stress."}, "[2]": {"test_system": "Ramos cells", "test": "ROS generation, carboxy-H2DCFDA probe, flow cytometry", "format": "cell-based", "experimental": "In these experiments, we monitored the production of ROS using the cell permeable Carboxy-H2DCFDA probe. When this probe is oxidized by ROS, it emits a green fluorescence that can be detected using flow cytometry or fluorescent microscopy. […] 25 μM carboxy-H2DCFDA (Invitrogen. C400) working solution was added to cover the cells, and the cells were incubate for 30 minutes at 37° C., protected from light. The cells were gently washed three times in warm HBSS/Ca/Mg. ROS levels, as determined by fluorescence intensity, were determined by flow cytometry (excitation at 495 nm, emission at 529 nm).\nas §1\nRamos cells were treated with elesclomol (500 nM) for the indicated times then washed gently once with warm HBSS/Ca/Mg (Invitrogen Carlsbad, Calif. Cat# 14025). 25 μM carboxy-H2DCFDA (Invitrogen Cat #C400) working solution was added to cover the cells and they were incubated for 30 minutes at 37° C., protected from light. The cells were gently washed three times in warm HBSS/Ca/Mg. ROS levels (fluorescence intensity) were determined by flow cytometry (excitation at 495 nm, emission at 529 nm) using a Becton Dickinson FACSCalibur equipped with CellQuest Pro software. Data is plotted as percent of elesclomol-treated cells with DCFDA fluorescence relative to DMSO (control) treated cells (see FIG. 49)."}, "[3]": {"test_system": "cytochrome c and caspase 3", "test": "Apoptotic markers, Western blot, Ramos cells", "format": "cell-based", "settings": "100 nM", "experimental": "Ramos cells were plated for 3 hours then treated with 100 nM elesclomol for the indicated times. To determine cytochrome c levels in the cytoplasm and mitochondria (a) Ramos cells were fractionated using the method detailed in (Hase et al, Journal of Biol. Chem. Vol. 277, pp. 46950-58, 2002) and western blots were probed with Cytochrome C primary antibody (BD Pharmingen, clone 7H8.2; C12). All Western blots were probed with secondary antibodies conjugated to HRP (Cell Signaling) and visualized using Lumiglo (Cell Signaling) peroxide reagents. Images were captured from the Kodak Image Station 440. For Caspase 3 analysis (b), whole cell lysates were isolated using 1× cell lysis buffer (Cell Signaling, Danvers, Mass.) plus protease inhibitors (Calbiochem, San Diego, Calif.). 30 ug of protein was run on a 4-12% Nupage gel (Invitrogen) and immunoblotted using standard procedures. The blots were probed with Caspase 3 antibody (9662) and cleaved Caspase 3 primary antibodies (9661) both from Cell Signaling."}, "[4]": {"test_system": "HSB2 cells", "test": "Apoptosis, Annexin V / propidium iodide FACS", "format": "cell-based", "settings": "p38 inhibitor 20 μM plus Compound 1 0.2 μM"}, "[5]": {"test_system": "MSK1", "test": "MSK1 phosphorylation, Western blot, MDA-MB-435 cells", "format": "cell-based, human", "settings": "20 μM SB203580, 0.1 or 0.5 μM Compound 1", "experimental": "(§2) After treatment the cells were lysized and used for Western blot analysis.\nSamples were run on a SDS-PAGE gel and proteins were transferred onto a nitrocellulose membrane by a semi-dry transfer. Nitrocellulose was blocked with 5% skim milk in TBS with 0.5% Tween at room temperature for 1 hour and then probed with anti-p-MSK1 (Thr581) (#9595, Cell Signaling) antibody. The nitrocellulose was then probed with secondary antibodies, HRP-conjugated goat anti-rabbit IgG and HRP-conjugated horse anti-mouse IgG (#7074, #7076, Cell Signaling). LumiGLO reagent, 20× Peroxide (#7003, Cell Signaling) was used to visualize gel (see FIG. 36).\nSamples were run on a SDS-PAGE gel and proteins were transferred onto a nitrocellulose membrane by a semi-dry transfer. Nitrocellulose was blocked with 5% skim milk in TBS with 0.5% Tween at room temperature for 1 hour and then probed with anti-p-MSK1 (Thr581) (#9595, Cell Signaling) antibody. Tubulin was used as a normalization control and was probed with Anti-Tubulin (T9026, Sigma) antibody."}, "[6]": {"test_system": "HSB2 cells", "test": "Apoptosis, Annexin V / propidium iodide FACS", "format": "cell-based", "settings": "for relative levels of apoptotic cells: agent alone, without Compound 1", "experimental": "(§3) To confirm that the ability of NAC to block Compound 1-induced cell death was not cell-line specific, we examined the role of oxidative stress in two additional cell lines by FAC analysis. RAMOS and HSB2 cells (ATCC) were seeded in 6-well plates at 1×10^6 cells/well/4 mL and incubated at 37° C. for 4 hours. […] After incubation the cells were stained with Annexin V and propidium iodide (Vybrant Apoptosis assay kit, Cat# V13241, Invitrogen, Molecular Probes) for measuring apoptotic cells by FACS analysis.\nThe cells were harvested and stained with Annexin V and propidium iodide for measuring apoptotic cells by FACS analysis."}, "[7]": {"test_system": "MAPKAPK-2", "test": "MAPKAPK-2 phosphorylation, Western blot, CEM and CV-1 cells", "format": "cell-based", "settings": "20 μM SB203580, 0.1 or 0.5 μM Compound 1", "experimental": "as §2\nSamples were run on a SDS-PAGE gel and proteins were transferred onto a nitrocellulose membrane by a semi-dry transfer. Nitrocellulose was blocked with 5% skim milk in TBS with 0.5% Tween at room temperature for 1 hour and then probed with anti-p-MAPKAPK-2 (Thr334) (#3041, Cell Signaling) antibody. Tubulin was used as a normalization control and was probed with Anti-Tubulin (T9026, Sigma) antibody."}, "[8]": {"test_system": "Hsp70", "test": "Hsp70 RNA induction, quantitative PCR, Hs294T cells", "format": "cell-based, human", "settings": "Compound 1 100 nM, 6 hours", "experimental": "[…] 500 ng of RNA from each sample was used for cDNA synthesis using iScript cDNA Synthesis Kit (Biorad, Cat# 170-8891). 1 uL of cDNA mixture was used with the iQ SYBR Green Supermix (Biorad, Cat# 170-8882) to perform quantitative PCR in an iCycler machine (Biorad) using standard protocols. QPCR for each sample/time point was performed in duplicate. The following primers for inducible human Hsp70 and gapdh were used:\nCt values were obtained from the iCycler program and used in an equation (2^−ΔΔCT) for determining the amount of target relative to gapdh expression. This compares the relative expression of Hsp70 to the corresponding levels of gapdh in each sample. Duplicate wells were averaged and graphed with their corresponding standard deviation.\nActivation of HSF-1 by oxidative stress has been reported in the literature to require p38 kinase signaling in some cell lines."}, "[9]": {"test_system": "Stage 1V metastatic melanoma", "description": "A phase II clinical trial was conducted in patients that had Stage 1V metastatic melanoma patients.\nPatients were treated until progression of the disease. […] The tumor assessments were performed at baseline, Cycle 2, and every other Cycle thereafter."}, "[10]": {"settings": "in vivo"}, "[11]": {"test_system": "MDA-MB-435 cells", "test": "Cell viability (Cell Counting Kit-8)", "format": "cell-based, human", "settings": "[…] NAC, 500 nM Compound 1, 72 hours", "experimental": "The cells were further cultured at 37° C. for 72 hours and cell viability was measured with Cell Counting Kit-8 (Dojindo Laboratories, Cat# CK04)."}, "[12]": {"test_system": "Hs294T (or MDA-MB-435) cells", "test": "Affymetrix transcriptional profiling", "format": "cell-based, human", "settings": "Hs294T cells; NAC 5 mM 30 minutes prior to Compound 1 100 nM; 6 hours", "experimental": "RNA was isolated from the cells 6 hours after treatment using the RNeasy kit according to the manufacturers instructions (Qiagen Cat. # 71404) and RNA quality was confirmed by spectrophotometric examination. cDNA was synthesized using the One-Cycle cDNA Synthesis Kit (Affymetrix Cat. # 900431) according to the manufacturers instructions. cDNA was labeled using the GeneChip IVT Labeling Kit (Affymetrix Cat. #900449) and analyzed in duplicate on the Affymetrix Human Genome U133Plus 2.0 gene chip array according to standard Affymetrix protocols. Data sheets from the Affymetrix Gene Chip Scanner 3000 were imported into Microsoft Excel and filtered by the following criteria: greater than or equal to 1.5 fold increase, greater than or equal to 0.4SE between replicates; and 50 (low stringency) or 500 (high stringency) for the lowest signal.\nNAC is the rate-limiting amino acid for the production of the antioxidant glutathione. Addition of NAC to cells increases the levels of endogenous glutathione which in turn blocks oxidative stress and ROS generation. […] RNA was isolated from the cells 6 hours after treatment and Affymetrix analysis was performed as above."}, "[13]": {"test_system": "Ramos cells", "test": "Apoptosis, Annexin V / propidium iodide FACS", "format": "cell-based", "settings": "5 mM NAC", "experimental": "as §3"}, "[14]": {"settings": "RECIST, Efficacy Sample, patients (percent)"}},
  "note": "Entries after “also recorded” stand apart in the source; their conditions may differ.",
  "data": [
    {"smiles": "O=S(=O)(O)c1cc(O)c(O)c(S(=O)(=O)O)c1", "note": "[Tiron, reference compound]", "values": [
      {"measurement": "block of induction of Hsp70 by Compound 1", "setting": "[1]", "result": "blocks the induction of Hsp70 by Compound 1"},
      {"measurement": "block of ROS generation by Compound 1", "setting": "[2]; 500 mM Tiron 1 hour prior to Compound 1 0.5 μM, 24 hours", "result": "blocked the ability of Compound 1 to generate ROS"}
    ]},
    {"smiles": "CN(NC(=O)CC(=O)NN(C)C(=S)c1ccccc1)C(=S)c1ccccc1", "note": "[elesclomol]", "values": [
      {"measurement": "time post treatment at which cytochrome c and caspase 3 start to be activated", "setting": "[3]", "result": 6, "unit": "h"},
      {"measurement": "accumulation of ROS", "setting": "[2]; 500 nM, time course", "result": "induces accumulation of ROS in cells shortly after drug treatment"}
    ]},
    {"smiles": "C[S+]([O-])c1ccc(-c2nc(-c3ccncc3)c(-c3ccc(F)cc3)[nH]2)cc1", "note": "(stereo not drawn) [SB203580, reference compound]", "values": [
      {"measurement": "effect of p38 inhibitor on apoptosis induced by Compound 1", "setting": "[4]", "result": "did not effect induction of apoptosis by Compound 1"},
      {"measurement": "block of Compound 1 induced phosphorylation of MSK1", "setting": "[5]", "result": "blocked"},
      {"measurement": "relative levels of apoptotic cells", "setting": "[6]", "result": "little or no effect"},
      {"measurement": "block of Compound 1 induced phosphorylation of MAPKAPK-2", "setting": "[7]", "result": "blocked"},
      {"measurement": "inhibition of Hsp70 induction by Compound 1", "setting": "[8]; p38 inhibitor 20 uM", "result": "robust decrease in Hsp70 induction"}
    ]},
    {"smiles": "CC(=O)O[C@H]1C(=O)[C@@]2(C)[C@H]([C@H](OC(=O)c3ccccc3)[C@]3(O)C[C@H](OC(=O)[C@H](O)[C@@H](NC(=O)c4ccccc4)c4ccccc4)C(C)=C1C3(C)C)[C@]1(OC(C)=O)CO[C@@H]1C[C@@H]2O", "note": "[Paclitaxel, paclitaxel]", "values": [
      {"measurement": "CR + PR (95% CI)", "setting": "[9]; RECIST, Efficacy Sample", "result": "3.7% (0.1%,19.0%)"},
      {"measurement": "Best Overall Response: Complete Response (CR)", "setting": "[9]; [14]", "result": 0},
      {"measurement": "Best Overall Response: Partial Response (PR)", "setting": "[9]; [14]", "result": "1 (3.7%)"},
      {"measurement": "Best Overall Response: Progressive Disease (PD)", "setting": "[9]; [14]", "result": "16 (59.3%)"},
      {"measurement": "number of patients with partial response", "setting": "[9]; Table 5", "result": 1, "unit": "patient"},
      {"measurement": "patients with progressive disease", "setting": "[9]; Table 5", "result": 59.3, "unit": "%"},
      {"measurement": "patients with stable disease", "setting": "[9]; Table 5", "result": 37, "unit": "%"},
      {"measurement": "dose limiting toxicities", "setting": "[10]", "result": "dose limiting toxicities occurred in a single patient in each of the top three dose levels"}
    ]},
    {"smiles": "CC(=O)N[C@@H](CS)C(=O)O", "note": "[NAC, N-acetyl-cysteine, reference compound]", "values": [
      {"measurement": "block of Compound 1-induced cell death", "setting": "[11]", "result": "completely blocked the ability of Compound 1 to induce cell death"},
      {"measurement": "early apoptotic cells", "setting": "[6]; NAC 5 mM alone", "result": 11, "unit": "%"},
      {"measurement": "relative levels of apoptotic cells", "setting": "[6]", "result": "little or no effect"},
      {"measurement": "block of ROS generation by Compound 1", "setting": "[2]; 1.0 mM or 10 mM NAC 1 hour prior to Compound 1 0.5 μM", "result": "almost completely blocked the generation of ROS by Compound 1"},
      {"measurement": "effect of NAC on genes induced by Compound 1", "setting": "[12]", "result": "inhibited the genes most robustly induced by Compound 1"},
      {"measurement": "inhibition of Compound 1-induced early apoptotic signaling", "setting": "[13]", "result": "completed inhibited early apoptotic signaling"},
      {"measurement": "inhibition of Hsp70 induction by Compound 1", "setting": "[8]; 5 mM NAC", "result": "complete inhibition in Hsp70 induction; also recorded: completely inhibited"}
    ]}
  ]
}
